Nine compounds from US12172992B2, “Pyrimidines for degrading Bruton's tyrosine kinase” (AbbVie Inc., priority 2022, dated 2024) can be followed below.

One experiment deals with BTK in mouse bone marrow (Mus musculus (Mouse), UniProt P35991). The experiment in a line: Mouse Bone Marrow Assay (MSD ELISA of BTK degradation in bone marrow). It counts as in vivo. To be noted: female C57BL/6J mice, single dose of Dose A, bone marrow collected after 24 hours. On the procedure:
Female C57BL/6J mice (Jackson Laboratories) were used for this study. Compounds or vehicle/control were prepped with EtOH; PEG-400; Phosal 53 MCT (10:30:60, v/v). Four mice were tested per compound or vehicle/control. On Day 1, mice were administered a single dose of Dose A. On Day 2 (after 24 hours), tissue (bone marrow) was collected from one hind leg per mouse.
An MSD (Meso Scale Discovery) ELISA (enzyme-linked immunosorbent assay) based assay was used to determine BTK degradation in mouse bone marrow. The following materials and equipment were used: 10% NP40 solution (nonionic polyoxyethylene surfactant, ThermoFisher, cat no. 28324); protease inhibitor mini tablet (Roche, cat no. 05 892 970 001); PhosphoSTOP™ tablet (Roche, cat no. 04 906 837 001); Pierce™ BCA Protein Assay Kit (Thermofisher, Cat No. 23225); Precellys® 2 mL lysing tube with 2.8 mm beads (VWR, cat no. 10032-756); Bertin Precellys® 24/Cryolys® cooling system; 96-well MSD streptavidin pre-coated plates (MSD, cat no. L15SA-1); MSD Blocker A (MSD, cat no. R93BA-4); capture antibody, biotinylated BTK mAb (BD Biosciences, cat no. 624008; custom order); primary detection antibody, BTK RpAb (rabbit polyclonal antibody, CST, cat no. 8547S, D3H5 clone); secondary detection antibody, anti-Rabbit-Sulfo-Tag (MSD, cat no. R32AB-1); read Buffer, 4× (MSD, cat no. R92TC-1); recombinant BTK protein (Thermofisher, cat no. PR5442A); MSD Tris Wash Buffer (10×) (MSD, cat no. R61TX-1); PBS (phosphate-buffered saline); deionized water (diH2O); Lysis Buffer [0.2% NP40 in PBS+Protease Inhibitor tablet (1 tablet/10 mL)+PhosphoSTOP tablet (1 tablet/10 mL)]; 3% MSD Blocker A [MSD Blocker A+450 mL diH2O+50 mL]; and 10×MSD Tris Wash Buffer.
Lysis buffer [(PBS+0.2% NP40+PI (protease inhibitor)+PhosphoSTOP)] was prepared and put on ice until it was fully cold. Ice cold lysis buffer […] was added to each Precellys® tube containing beads and bone marrow sample. Sample tubes were transferred into Precellys® machine and homogenized using 5000 rpm—2×20 seconds. The sample lysates were centrifuged at 14,000 rpm for 20 minutes at 4° C. after homogenizing.
The protein concentration was determined using Pierce™ BCA Protein Assay Kit following manufacturer's recommended protocol. The protein normalized working solution was prepared, using 30 μg protein per sample lysate for assay.
A 300 ng/ml working stock solution of recombinant BTK protein in lysis buffer was prepared, and the sample was serially diluted at 3-fold dilution (10-point assay, highest concentration was 300 ng/mL and lowest concentration was 0.015 ng/mL)
MSD plate coating: Coating antibody (biotinylated-BTK mAb) stock solution was prepared at 1 μg/mL in PBS buffer. 50 μL/well capture antibody (Biotinylated BTK mAb) solution was added, and the plates were shaken gently at ambient temperature for two hours. The plates were washed 3 times with 1×MSD Tris Wash Buffer in a plate washer (300 μL/well), and the plates were blocked with 3% MSD Blocker A (150 μL/well). The plates were incubated for an additional 1-2 hours at ambient temperature with gentle shaking. The plates were washed 3 times with 1×MSD wash buffer using plate washer. Bone marrow lysates (30 μg) at a final volume of 50 μL/well were added into the plates. The serially diluted standard samples were added to the same plates at a final volume of 50 μL/well. The plates were incubated overnight at 4° C. with gentle shaking.
The plates were washed three times with 1×MSD wash buffer (prepared from 10× concentration buffer) using plate washer. Primary detection antibody at 50 μL/well was added (BTK RpAb; 1:1000 dilution in 1% MSD Blocker A). The plates were incubated for two hours at ambient temperature with gentle shaking. The plates were washed three times with 1×MSD wash buffer using plate washer. Anti-Rabbit-SULFO-TAG secondary antibodies (50 μl/well) were added, 1:500 diluted in 1% MSD Blocker A, and the plates were incubated for one to two hours at ambient temperature. […]
For orientation: ELISA stands for enzyme-linked immunosorbent assay.

Experiment [1] addresses BTK protein in human whole blood (Homo sapiens (Human), UniProt Q06187). The experiment in a line: Btk protein in human whole blood MSD ELISA based assay (BTK degradation). It counts as cell-based. To be noted: 6 hours, maximum BTK degradation compared to DMSO only treated samples, read-out: hWB BTK dMax (%). On the procedure:
Btk protein degradation was tested using an Meso Scale Discovery-ELISA system (MSD-ELISA): (1) Test compounds were added to human whole blood; (2) human whole blood cells treated with test compounds were lysed; (3) lysed cells were treated with capture antibody, an antibody to Btk; (4) lysed cells were treated with […] to Btk; and (5) lysed cells were treated with anti-mouse antibody (tagged).
Specifically, about 80 μl of fresh human whole blood from healthy donors was transferred into each well of a 96-well V-bottom plate (Costar, Cat No. 3894). Using a TECAN™ D300e Digital Dispenser (Tecan)), 1:4 serially diluted compounds [(8 pt assay) in DMSO solution (final 0.2%) starting at 3 μM top concentration], were added in duplicate. Thereafter, plates were placed in a 37° C. incubator and incubated for 6 hours.
At the end of incubation, 80 μl of 2×CST lysis buffer (Cell Signaling Technology, Cat No. 9803), prepared from a 10× stock solution, was added per well to lyse the blood. Plates were then sealed with a plate sealer and the samples were frozen overnight at −80° C.
Total amount of BTK protein remaining in the blood samples after compound treatment was measured using MSD-ELISA. After thawing the frozen plates, blood lysates were mixed thoroughly and transferred to small spot high-bind MSD plates (Meso Scale Discovery, Cat No. L45XB-3) and coated with capturing antibody, rabbit anti-human BTK (D3H5) (Cell Signaling Technology, Cat No. 8547CF). Thereafter, primary detection antibody, mouse anti-human BTK monoclonal antibody, (BD Biosciences, Cat No. 611117) and secondary detection antibody, anti-mouse SULFO-TAG (Meso Scale Discovery, Cat No. R32AC-1) were added. The assay plates were read on an MSD S600 plate reader by the addition of 2×MSD read buffer (Meso Scale Discovery, R92TC-1). All reagent transfers, including blood lysis, was conducted using a Biomed i7 liquid handler. From the dose response curves, DC50 values were calculated by averaging data from duplicate experiments. and Curve fitting was done by non-linear regression using GraphPad Prism. The DC50 values are reported in Table 2 in the hWB BTK DC50 (nM) column The Dmax values represent the maximum amount of BTK degradation observed upon compound treatment compared to DMSO only treated samples. The dMax (%) values are reported in Table 2 in the hWB BTK dMax (%) column.

Sequence of BTK in mouse bone marrow (P35991 whole entry): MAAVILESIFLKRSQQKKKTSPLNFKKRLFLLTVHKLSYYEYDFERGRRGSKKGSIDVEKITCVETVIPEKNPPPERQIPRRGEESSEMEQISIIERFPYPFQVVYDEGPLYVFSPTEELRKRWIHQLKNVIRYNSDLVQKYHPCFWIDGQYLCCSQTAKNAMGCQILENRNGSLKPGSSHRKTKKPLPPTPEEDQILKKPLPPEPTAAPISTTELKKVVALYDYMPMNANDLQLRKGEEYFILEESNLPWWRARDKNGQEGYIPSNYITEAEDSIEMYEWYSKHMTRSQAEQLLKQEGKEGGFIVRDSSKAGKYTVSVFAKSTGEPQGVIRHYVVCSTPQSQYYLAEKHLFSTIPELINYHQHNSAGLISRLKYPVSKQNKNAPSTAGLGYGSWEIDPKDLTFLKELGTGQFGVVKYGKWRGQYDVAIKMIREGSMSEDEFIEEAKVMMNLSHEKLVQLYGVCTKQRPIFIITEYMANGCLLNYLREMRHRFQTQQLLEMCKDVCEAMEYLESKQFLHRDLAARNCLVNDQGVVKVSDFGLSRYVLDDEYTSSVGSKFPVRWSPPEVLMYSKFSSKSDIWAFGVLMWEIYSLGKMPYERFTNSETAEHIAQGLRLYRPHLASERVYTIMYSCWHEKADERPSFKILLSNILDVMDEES
Sequence of BTK protein in human whole blood (Q06187 whole entry): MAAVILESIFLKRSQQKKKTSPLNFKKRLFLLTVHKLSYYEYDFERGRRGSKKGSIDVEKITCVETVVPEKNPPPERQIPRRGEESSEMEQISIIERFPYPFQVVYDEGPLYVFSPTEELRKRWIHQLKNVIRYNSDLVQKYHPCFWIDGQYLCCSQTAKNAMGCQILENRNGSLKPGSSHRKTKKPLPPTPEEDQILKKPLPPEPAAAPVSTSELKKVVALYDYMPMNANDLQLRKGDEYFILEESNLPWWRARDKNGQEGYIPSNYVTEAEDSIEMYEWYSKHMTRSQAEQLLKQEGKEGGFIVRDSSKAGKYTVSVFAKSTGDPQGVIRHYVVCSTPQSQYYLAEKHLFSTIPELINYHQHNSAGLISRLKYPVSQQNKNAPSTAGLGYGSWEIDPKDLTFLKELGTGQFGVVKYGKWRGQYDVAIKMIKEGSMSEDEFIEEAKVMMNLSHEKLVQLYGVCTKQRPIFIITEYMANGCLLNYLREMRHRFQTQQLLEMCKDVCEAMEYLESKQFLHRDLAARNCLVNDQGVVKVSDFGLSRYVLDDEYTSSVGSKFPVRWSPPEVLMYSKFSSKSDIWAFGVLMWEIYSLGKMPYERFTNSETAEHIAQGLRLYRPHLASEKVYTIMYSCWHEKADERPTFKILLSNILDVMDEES

The term Dmax denotes the greatest extent of degradation seen. For the compound `Cc1cc(-c2cc(Nc3ccc(N4CCN(CCc5ccc(N6CCC(=O)NC6=O)cc5)C[C@H]4C)cn3)ncn2)ccc1[C@@H](C)NC(=O)c1nc(C(C)(C)C)no1` [Example 2, 3-tert-butyl-N-[(1R)-1-{4-[6-({5-[(2R)-4-{2-[4-(2,4-dioxo-1,3-diazinan-1-yl)phenyl]ethyl}-2-methylpiperazin-1-yl]pyridin-2-yl}amino)pyrimidin-4-yl]-2-methylphenyl}ethyl]-1,2,4-oxadiazole-5-carboxamide], at BTK in mouse bone marrow, the “Mouse Bone Marrow (%) (% remaining BTK, vehicle versus treated)” value worked out at 12%. Besides, in experiment [1], the Dmax came out at 98.8%.
Regarding `Cc1cc(-c2cc(Nc3ccc(N4CCN(CCc5ccc(N6CCC(=O)NC6=O)cc5)CC4)cn3)ncn2)ccc1[C@@H](C)NC(=O)c1nc(C(C)(C)C)no1` [Example 3, 3-tert-butyl-N-{(1R)-1-[4-(6-{[5-(4-{2-[4-(2,4-dioxo-1,3-diazinan-1-yl)phenyl]ethyl}piperazin-1-yl)pyridin-2-yl]amino}pyrimidin-4-yl)-2-methylphenyl]ethyl}-1,2,4-oxadiazole-5-carboxamide], the “Mouse Bone Marrow (%) (% remaining BTK, vehicle versus treated)” value on BTK in mouse bone marrow turned out to be 22%. For the same compound, in experiment [1], the greatest degradation seen (Dmax) came to 99.2%.
With `Cc1cc(-c2cc(Nc3ccc(N4CCN(CCc5ccc(N6CCC(=O)NC6=O)c(F)c5)C[C@@H]4C)cn3)ncn2)ccc1[C@@H](C)NC(=O)c1nc(C(C)(C)C)no1` [Example 4, 3-tert-butyl-N-[(1R)-1-{4-[6-({5-[(2S)-4-{2-[4-(2,4-dioxo-1,3-diazinan-1-yl)-3-fluorophenyl]ethyl}-2-methylpiperazin-1-yl]pyridin-2-yl}amino)pyrimidin-4-yl]-2-methylphenyl}ethyl]-1,2,4-oxadiazole-5-carboxamide], on BTK in mouse bone marrow, the “Mouse Bone Marrow (%) (% remaining BTK, vehicle versus treated)” value turned out to be 13%. Moreover, the Dmax in experiment [1] stood at 99.8%.
With `Cc1cc(-c2cc(Nc3ccc(N4CCN(CCc5ccc(N6CCC(=O)NC6=O)c(F)c5)C[C@H]4C)cn3)ncn2)ccc1[C@@H](C)NC(=O)c1nc(C(C)(C)C)no1` [Example 5, 3-tert-butyl-N-[(1R)-1-{4-[6-({5-[(2R)-4-{2-[4-(2,4-dioxo-1,3-diazinan-1-yl)-3-fluorophenyl]ethyl}-2-methylpiperazin-1-yl]pyridin-2-yl}amino)pyrimidin-4-yl]-2-methylphenyl}ethyl]-1,2,4-oxadiazole-5-carboxamide], the “Mouse Bone Marrow (%) (% remaining BTK, vehicle versus treated)” value on BTK in mouse bone marrow is recorded as 12%. Further, the Dmax in experiment [1] stood at 99.3%.
Take `CC[C@H]1CN(CCc2ccc(N3CCC(=O)NC3=O)cc2)CCN1c1ccc(Nc2cc(-c3ccc([C@@H](C)NC(=O)c4nc(C(C)(C)C)no4)c(C)c3)ncn2)nc1` [Example 6, 3-tert-butyl-N-[(1R)-1-{4-[6-({5-[(2S)-4-{2-[4-(2,4-dioxo-1,3-diazinan-1-yl)phenyl]ethyl}-2-ethylpiperazin-1-yl]pyridin-2-yl}amino)pyrimidin-4-yl]-2-methylphenyl}ethyl]-1,2,4-oxadiazole-5-carboxamide]: at BTK in mouse bone marrow, the “Mouse Bone Marrow (%) (% remaining BTK, vehicle versus treated)” value was found to be 19%. For the same compound, the greatest degradation seen (Dmax) in experiment [1] came out at 99.8%.
For `CC[C@H]1CN(CCc2ccc(N3CCC(=O)NC3=O)c(F)c2)CCN1c1ccc(Nc2cc(-c3ccc([C@@H](C)NC(=O)c4nc(C(C)(C)C)no4)c(C)c3)ncn2)nc1` [Example 7, 3-tert-butyl-N-[(1R)-1-{4-[6-({5-[(2S)-4-{2-[4-(2,4-dioxo-1,3-diazinan-1-yl)-3-fluorophenyl]ethyl}-2-ethylpiperazin-1-yl]pyridin-2-yl}amino)pyrimidin-4-yl]-2-methylphenyl}ethyl]-1,2,4-oxadiazole-5-carboxamide] the same measures were 22% and 99.3%.
On to `COC[C@H]1CN(CCc2ccc(N3CCC(=O)NC3=O)cc2)CCN1c1ccc(Nc2cc(-c3ccc([C@@H](C)NC(=O)c4nc(C(C)(C)C)no4)c(C)c3)ncn2)nc1` [Example 15, 3-tert-butyl-N-[(1R)-1-{4-[6-({5-[(2R)-4-{2-[4-(2,4-dioxo-1,3-diazinan-1-yl)phenyl]ethyl}-2-(methoxymethyl)piperazin-1-yl]pyridin-2-yl}amino)pyrimidin-4-yl]-2-methylphenyl}ethyl]-1,2,4-oxadiazole-5-carboxamide], for which the maximal degradation (Dmax) in experiment [1] amounted to 99.9%.
Still for that read-out and setting: with `C[C@@H](NC(=O)c1nc(C(C)(C)C)no1)c1ccc(-c2cc(Nc3ccc(N4CCN(CCc5ccc(N6CCC(=O)NC6=O)cc5)C[C@@H]4C)cn3)ncn2)cc1C(F)(F)F` [Example 16, 3-tert-butyl-N-[(1R)-1-{4-[6-({5-[(2S)-4-{2-[4-(2,4-dioxo-1,3-diazinan-1-yl)phenyl]ethyl}-2-methylpiperazin-1-yl]pyridin-2-yl}amino)pyrimidin-4-yl]-2-(trifluoromethyl)phenyl}ethyl]-1,2,4-oxadiazole-5-carboxamide] the figure was 100%; with `C[C@@H](NC(=O)c1nc(C(C)(C)C)no1)c1ccc(-c2cc(Nc3ccc(N4CCN(CCc5ccc(N6CCC(=O)NC6=O)cc5)C[C@@H]4C)cn3)ncn2)cc1F` [Example 17, 3-tert-butyl-N-[(1R)-1-{4-[6-({5-[(2S)-4-{2-[4-(2,4-dioxo-1,3-diazinan-1-yl)phenyl]ethyl}-2-methylpiperazin-1-yl]pyridin-2-yl}amino)pyrimidin-4-yl]-2-fluorophenyl}ethyl]-1,2,4-oxadiazole-5-carboxamide], 99.6%.
